This note sets out measurements from patent US8604195B2, “Substituted bicyclic piperidinyl- and piperazinyl-sulfonamides useful to inhibit 11β-hydroxysteroid dehydrogenase type-1” (Merck Sharp & Dohme Corp., priority 2007, dated 2013).

One assay concerns the target Mouse 11-β-HSD1 (Mus musculus, UniProt P50172). The assay can be described thus: 11β-HSD1 enzymatic activity, 3H-cortisone SPA, mouse enzyme. Particulars: Mouse 11-β-HSD1 IC50 (nM), membrane, 125 nM 3H-cortisone, 1 hr room temperature.
Another assay has as its target Human 11-β-HSD1 (Homo sapiens, UniProt P28845). The assay can be described thus: 11β-HSD1 enzymatic activity, 3H-cortisone SPA, human enzyme. The conditions noted are these: Human 11-β-HSD1 IC50 (nM), membrane, 125 nM 3H-cortisone, 1 hr room temperature.

Some results are limits rather than exact numbers.

Sequence of Mouse 11-β-HSD1 (P50172 whole entry): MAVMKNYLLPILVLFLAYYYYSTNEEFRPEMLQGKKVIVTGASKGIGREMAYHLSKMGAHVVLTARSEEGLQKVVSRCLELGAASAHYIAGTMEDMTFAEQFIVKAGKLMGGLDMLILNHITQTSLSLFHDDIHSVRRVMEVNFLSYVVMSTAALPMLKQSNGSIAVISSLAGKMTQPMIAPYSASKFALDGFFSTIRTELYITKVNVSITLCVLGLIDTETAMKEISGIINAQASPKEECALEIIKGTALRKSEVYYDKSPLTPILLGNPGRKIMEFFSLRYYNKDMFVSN
Sequence of Human 11-β-HSD1 (P28845 whole entry): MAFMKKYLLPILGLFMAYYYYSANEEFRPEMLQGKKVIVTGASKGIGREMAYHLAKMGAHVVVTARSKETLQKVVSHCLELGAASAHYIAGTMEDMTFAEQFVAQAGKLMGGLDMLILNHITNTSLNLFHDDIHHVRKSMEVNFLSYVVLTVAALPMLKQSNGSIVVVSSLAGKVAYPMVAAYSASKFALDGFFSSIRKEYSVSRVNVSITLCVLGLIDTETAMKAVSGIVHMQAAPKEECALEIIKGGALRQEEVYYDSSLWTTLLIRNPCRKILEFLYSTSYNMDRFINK
Protocol for Human 11-β-HSD1: (§1) The reaction was incubated at room temperature for 1 hr before it was stopped by addition of 50 μM buffer containing 20 mM NaPO4 pH 7.5, 30 μM 18β-glycyrrhetinic acid, 1 μg/ml monoclonal anti-cortisol antibody (Biosource) and 2 mg/ml anti-mouse antibody coated scintillation proximity assay (SPA) beads (Amersham Bioscience). The mixture was incubated at room temperature for 2 hrs with vigorous shaking and analyzed on TopCount scintillation counter.
Protocol for Mouse 11-β-HSD1: as §1

Turning to `CC(C)(C)c1ccc(S(=O)(=O)N2C3CCC2CC(Oc2ccc(C#N)cn2)C3)cc1` (single isomer, unassigned) [Compound 6], the values for the IC50 against Mouse 11-β-HSD1 and against Human 11-β-HSD1 were 5590 nM and 413 nM, respectively.
As to `CC(C)(C)c1ccc(S(=O)(=O)N2C3CCC2CC(Oc2ccc(C#N)cn2)C3)cc1` (single isomer, unassigned) [Compound 5], the IC50 is 23800 nM against Mouse 11-β-HSD1 and greater than 10000 nM against Human 11-β-HSD1.
Turning to `CCC(C)(C)c1ccc(S(=O)(=O)N2C[C@@H]3C[C@H]2CN3C)cc1` [Compound 21], the IC50 against Mouse 11-β-HSD1 is 258 nM; on Human 11-β-HSD1, 333 nM.
`CC(C)(C)c1ccc(S(=O)(=O)N2C3CCC2CC(O)(c2ccccc2)C3)cc1` (stereo not drawn) [Compound 16] displayed an IC50 against Mouse 11-β-HSD1 of 138 nM.
In the case of `CC(C)(C)c1ccc(S(=O)(=O)N2C3CCC2CC(O)(Cc2ccccc2)C3)cc1` (stereo not drawn) [Compound 15], the half-maximal inhibitory concentration (IC50) amounted to 114 nM against Mouse 11-β-HSD1 and 740 nM against Human 11-β-HSD1.
